From patent US11793849B2, “Method of Chinese herbal medicine extract used for treating multiple diseases caused by drug resistant bacteria infection” (priority 2016, dated 2023)
Where two headings read alike, the source gives them in different places.

Tested on: MDRAB
Assay: Checkerboard assay (combined-use MIC, FIC)
Type: cell-based, Acinetobacter baumannii
Settings: for FIC, all strains / MIC50 of the antibiotic after combined use / MIC90 of the antibiotic after combined use / reduction of the antibiotic's MIC50 vs single use / reduction of the antibiotic's MIC90 vs single use / share of strains with FIC ≤ 0.5: 20 MDRABs; for MIC: Acinetobacter baumannii, EA=60% ethanol extract, read-out: single-use MIC
Procedure: Test methods of the sensibilization effects of the test product to similar antibiotics: it is operated by referring to a checkerboard assay recommended by NCCLS.
The checkerboard assay is performed in a 96-pore sterile culture plate.
Calculation of a Fractional Inhibitory Concentration (FIC): FIC=S20b combined-use MIC/S20b single-use MIC+antibiotic combined-use MIC/antibiotic single-use MIC. By calculating the FIC, the combined antibacterial interaction between the EA and the antibiotic is evaluated, with synergistic effect for FIC≤0.5, additive effect for 0.5<FIC≤1, indifferent effect for 1<FIC≤2 and antagonistic effect for FIC>2. According to a sterile growth pore, the optimum concentration ratio between the EA and the antibiotic is founded out. At last, the effect of the EA to strengthen the efficacy of the antibiotic is evaluated.

[1] = antibiotic with 60% ethanol extract
[2] = antibiotic with 95% ethanol extract
[3] = antibiotic with EA (10% ethanol extract)
[4] = antibiotic with EA (water extract)

CC(C)(O/N=C(\C(=O)N[C@@H]1C(=O)N2C(C(=O)[O-])=C(C[n+]3ccccc3)CS[C@H]12)c1csc(N)n1)C(=O)O [CAZ, Ceftazidime]
FIC, all strains [1]: ≤ 2
MIC50 of the antibiotic after combined use [1]: 128 µg/mL
MIC90 of the antibiotic after combined use [1]: 256 µg/mL
reduction of the antibiotic's MIC50 vs single use [1]: 75%
reduction of the antibiotic's MIC90 vs single use [1]: 50%
share of strains with FIC ≤ 0.5 [1]: 10%
FIC, all strains [2]: ≤ 2
MIC50 of the antibiotic after combined use [2]: 128 µg/mL
MIC90 of the antibiotic after combined use [2]: 256 µg/mL
reduction of the antibiotic's MIC50 vs single use [2]: 75%
reduction of the antibiotic's MIC90 vs single use [2]: 50%
share of strains with FIC ≤ 0.5 [2]: 10%
FIC, all strains [3]: ≤ 2
MIC50 of the antibiotic after combined use [3]: 128 µg/mL
MIC90 of the antibiotic after combined use [3]: 256 µg/mL
reduction of the antibiotic's MIC50 vs single use [3]: 75%
reduction of the antibiotic's MIC90 vs single use [3]: 50%
share of strains with FIC ≤ 0.5 [3]: 30%
FIC, all strains [4]: ≤ 2
MIC50 of the antibiotic after combined use [4]: 128 µg/mL
MIC90 of the antibiotic after combined use [4]: 256 µg/mL
reduction of the antibiotic's MIC50 vs single use [4]: 75%
reduction of the antibiotic's MIC90 vs single use [4]: 50%
share of strains with FIC ≤ 0.5 [4]: 20%
MIC (strain A1): 128 µg/mL
MIC (strain A2): 512 µg/mL
MIC (strain A3): 512 µg/mL
MIC (strain A4): 256 µg/mL
MIC (strain A5): 64 µg/mL
MIC (strain A6): 1020 µg/mL
MIC (strain A7): 1020 µg/mL
MIC (strain A8): 512 µg/mL
MIC (strain A9): 512 µg/mL
MIC (strain A10): 512 µg/mL
MIC (strain A11): 512 µg/mL
MIC (strain A12): 512 µg/mL
MIC (strain A13): 256 µg/mL
MIC (strain A14): 512 µg/mL
MIC (strain A15): 256 µg/mL
MIC (strain A16): 512 µg/mL
MIC (strain A17): 256 µg/mL
MIC (strain A18): 512 µg/mL
MIC (strain A19): 256 µg/mL
MIC (strain A20): 512 µg/mL
combined-use MIC (strain A1, EA (10% ethanol extract) with CAZ): 64 µg/mL
combined-use MIC (strain A1, EA (60% ethanol extract) + CAZ combined): 64 µg/mL
combined-use MIC (strain A1, EA (P. clypearia 95% ethanol extract) combined with CAZ): 64 µg/mL
combined-use MIC (strain A1, EA (water extract) with CAZ): 64 µg/mL
combined-use MIC (strain A2, EA (10% ethanol extract) with CAZ): 256 µg/mL
combined-use MIC (strain A2, EA (60% ethanol extract) + CAZ combined): 128 µg/mL
combined-use MIC (strain A2, EA (P. clypearia 95% ethanol extract) combined with CAZ): 128 µg/mL
combined-use MIC (strain A2, EA (water extract) with CAZ): 256 µg/mL
combined-use MIC (strain A3, EA (10% ethanol extract) with CAZ): 256 µg/mL
combined-use MIC (strain A3, EA (60% ethanol extract) + CAZ combined): 128 µg/mL
combined-use MIC (strain A3, EA (P. clypearia 95% ethanol extract) combined with CAZ): 128 µg/mL
combined-use MIC (strain A3, EA (water extract) with CAZ): 256 µg/mL
combined-use MIC (strain A4, EA (10% ethanol extract) with CAZ): 64 µg/mL
combined-use MIC (strain A4, EA (60% ethanol extract) + CAZ combined): 64 µg/mL
combined-use MIC (strain A4, EA (P. clypearia 95% ethanol extract) combined with CAZ): 64 µg/mL
combined-use MIC (strain A4, EA (water extract) with CAZ): 32 µg/mL
combined-use MIC (strain A5, EA (10% ethanol extract) with CAZ): 32 µg/mL
combined-use MIC (strain A5, EA (60% ethanol extract) + CAZ combined): 32 µg/mL
combined-use MIC (strain A5, EA (P. clypearia 95% ethanol extract) combined with CAZ): 32 µg/mL
combined-use MIC (strain A5, EA (water extract) with CAZ): 32 µg/mL
combined-use MIC (strain A6, EA (10% ethanol extract) with CAZ): 512 µg/mL
combined-use MIC (strain A6, EA (60% ethanol extract) + CAZ combined): 512 µg/mL
combined-use MIC (strain A6, EA (P. clypearia 95% ethanol extract) combined with CAZ): 512 µg/mL
combined-use MIC (strain A6, EA (water extract) with CAZ): 512 µg/mL
combined-use MIC (strain A7, EA (10% ethanol extract) with CAZ): 512 µg/mL
combined-use MIC (strain A7, EA (60% ethanol extract) + CAZ combined): 256 µg/mL
combined-use MIC (strain A7, EA (P. clypearia 95% ethanol extract) combined with CAZ): 256 µg/mL
combined-use MIC (strain A7, EA (water extract) with CAZ): 512 µg/mL
combined-use MIC (strain A8, EA (10% ethanol extract) with CAZ): 256 µg/mL
combined-use MIC (strain A8, EA (60% ethanol extract) + CAZ combined): 256 µg/mL
combined-use MIC (strain A8, EA (P. clypearia 95% ethanol extract) combined with CAZ): 256 µg/mL
combined-use MIC (strain A8, EA (water extract) with CAZ): 256 µg/mL
combined-use MIC (strain A9, EA (10% ethanol extract) with CAZ): 128 µg/mL
combined-use MIC (strain A9, EA (60% ethanol extract) + CAZ combined): 64 µg/mL
combined-use MIC (strain A9, EA (P. clypearia 95% ethanol extract) combined with CAZ): 256 µg/mL
combined-use MIC (strain A9, EA (water extract) with CAZ): 64 µg/mL
combined-use MIC (strain A10, EA (10% ethanol extract) with CAZ): 256 µg/mL
combined-use MIC (strain A10, EA (60% ethanol extract) + CAZ combined): 128 µg/mL
combined-use MIC (strain A10, EA (P. clypearia 95% ethanol extract) combined with CAZ): 256 µg/mL
combined-use MIC (strain A10, EA (water extract) with CAZ): 256 µg/mL
combined-use MIC (strain A11, EA (10% ethanol extract) with CAZ): 128 µg/mL
combined-use MIC (strain A11, EA (60% ethanol extract) + CAZ combined): 64 µg/mL
combined-use MIC (strain A11, EA (P. clypearia 95% ethanol extract) combined with CAZ): 64 µg/mL
combined-use MIC (strain A11, EA (water extract) with CAZ): 256 µg/mL
combined-use MIC (strain A12, EA (10% ethanol extract) with CAZ): 128 µg/mL
combined-use MIC (strain A12, EA (60% ethanol extract) + CAZ combined): 128 µg/mL
combined-use MIC (strain A12, EA (P. clypearia 95% ethanol extract) combined with CAZ): 128 µg/mL
combined-use MIC (strain A12, EA (water extract) with CAZ): 128 µg/mL
combined-use MIC (strain A13, EA (10% ethanol extract) with CAZ): 128 µg/mL
combined-use MIC (strain A13, EA (60% ethanol extract) + CAZ combined): 128 µg/mL
combined-use MIC (strain A13, EA (P. clypearia 95% ethanol extract) combined with CAZ): 128 µg/mL
combined-use MIC (strain A13, EA (water extract) with CAZ): 128 µg/mL
combined-use MIC (strain A14, EA (10% ethanol extract) with CAZ): 64 µg/mL
combined-use MIC (strain A14, EA (60% ethanol extract) + CAZ combined): 256 µg/mL
combined-use MIC (strain A14, EA (P. clypearia 95% ethanol extract) combined with CAZ): 256 µg/mL
combined-use MIC (strain A14, EA (water extract) with CAZ): 64 µg/mL
combined-use MIC (strain A15, EA (10% ethanol extract) with CAZ): 128 µg/mL
combined-use MIC (strain A15, EA (60% ethanol extract) + CAZ combined): 128 µg/mL
combined-use MIC (strain A15, EA (P. clypearia 95% ethanol extract) combined with CAZ): 128 µg/mL
combined-use MIC (strain A15, EA (water extract) with CAZ): 128 µg/mL
combined-use MIC (strain A16, EA (10% ethanol extract) with CAZ): 128 µg/mL
combined-use MIC (strain A16, EA (60% ethanol extract) + CAZ combined): 128 µg/mL
combined-use MIC (strain A16, EA (P. clypearia 95% ethanol extract) combined with CAZ): 256 µg/mL
combined-use MIC (strain A16, EA (water extract) with CAZ): 64 µg/mL
combined-use MIC (strain A17, EA (10% ethanol extract) with CAZ): 64 µg/mL
combined-use MIC (strain A17, EA (60% ethanol extract) + CAZ combined): 128 µg/mL
combined-use MIC (strain A17, EA (P. clypearia 95% ethanol extract) combined with CAZ): 128 µg/mL
combined-use MIC (strain A17, EA (water extract) with CAZ): 32 µg/mL
combined-use MIC (strain A18, EA (10% ethanol extract) with CAZ): 256 µg/mL
combined-use MIC (strain A18, EA (60% ethanol extract) + CAZ combined): 128 µg/mL
combined-use MIC (strain A18, EA (P. clypearia 95% ethanol extract) combined with CAZ): 128 µg/mL
combined-use MIC (strain A18, EA (water extract) with CAZ): 256 µg/mL
combined-use MIC (strain A19, EA (10% ethanol extract) with CAZ): 64 µg/mL
combined-use MIC (strain A19, EA (60% ethanol extract) + CAZ combined): 128 µg/mL
combined-use MIC (strain A19, EA (P. clypearia 95% ethanol extract) combined with CAZ): 128 µg/mL
combined-use MIC (strain A19, EA (water extract) with CAZ): 128 µg/mL
combined-use MIC (strain A20, EA (10% ethanol extract) with CAZ): 128 µg/mL
combined-use MIC (strain A20, EA (60% ethanol extract) + CAZ combined): 256 µg/mL
combined-use MIC (strain A20, EA (P. clypearia 95% ethanol extract) combined with CAZ): 256 µg/mL
combined-use MIC (strain A20, EA (water extract) with CAZ): 64 µg/mL
